# Test results published in ChEMBL document CHEMBL3045664, “Docking study on trametenolic acid B as a -glucosidase inhibitor” (Med Chem Res, 2012).
# Molecular target: Alpha-glucosidase MAL62 (Saccharomyces cerevisiae, UniProt P07265)
# Experiment: Inhibition of Saccharomyces cerevisiae (baker's yeast) alpha-glucosidase using p-nitrophenyl glucopyranoside as substrate preincubated for 30 min before substrate addition measured after 1 hr by spectrophotometric analysis
# Alpha-glucosidase MAL62, sequence (P07265 whole entry): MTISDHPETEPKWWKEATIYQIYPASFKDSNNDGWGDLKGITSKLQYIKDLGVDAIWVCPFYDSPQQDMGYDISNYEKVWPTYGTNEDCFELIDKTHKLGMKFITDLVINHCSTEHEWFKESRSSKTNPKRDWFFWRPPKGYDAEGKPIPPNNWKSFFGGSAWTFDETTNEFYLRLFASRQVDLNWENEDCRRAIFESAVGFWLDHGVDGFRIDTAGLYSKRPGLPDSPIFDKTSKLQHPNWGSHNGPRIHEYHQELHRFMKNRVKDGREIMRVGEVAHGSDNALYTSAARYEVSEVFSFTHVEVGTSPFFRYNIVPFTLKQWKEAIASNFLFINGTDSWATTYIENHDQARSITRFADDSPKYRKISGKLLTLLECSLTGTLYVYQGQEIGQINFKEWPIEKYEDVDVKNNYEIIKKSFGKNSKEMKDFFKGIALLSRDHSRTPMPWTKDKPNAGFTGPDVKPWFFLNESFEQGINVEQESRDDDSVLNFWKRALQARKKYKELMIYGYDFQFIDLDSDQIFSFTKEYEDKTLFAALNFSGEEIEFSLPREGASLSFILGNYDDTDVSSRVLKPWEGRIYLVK
compound,measurement,value
CC(C)=CCC[C@@H](C(=O)O)[C@H]1CC[C@@]2(C)C3=C(CC[C@]12C)[C@@]1(C)CC[C@H](O)C(C)(C)[C@@H]1CC3 [TRAMETENOLIC ACID],IC50,17.1 µM
